Experimental data from patent US7858635B2 (priority 2005, dated 2010).
Like-named read-outs stand apart in the source and are kept apart here.

Assays:
[1] = molecular target: T1, M1 muscarinic receptor (Homo sapiens, UniProt P11229); test: Functional mobilization of intracellular calcium (FLIPR, Fluo-3), M1-CHO cells; assay type: cell-based; conditions: for Emax: read-out: M1 Efficacy; for M1 Activity: M1-CHO cells, calcium mobilization
T1 construct: expressed in transfected cells; host or cells: CHO cells (M1-CHO, under zeocin and G418 selection)
T1 sequence (P11229 1-460): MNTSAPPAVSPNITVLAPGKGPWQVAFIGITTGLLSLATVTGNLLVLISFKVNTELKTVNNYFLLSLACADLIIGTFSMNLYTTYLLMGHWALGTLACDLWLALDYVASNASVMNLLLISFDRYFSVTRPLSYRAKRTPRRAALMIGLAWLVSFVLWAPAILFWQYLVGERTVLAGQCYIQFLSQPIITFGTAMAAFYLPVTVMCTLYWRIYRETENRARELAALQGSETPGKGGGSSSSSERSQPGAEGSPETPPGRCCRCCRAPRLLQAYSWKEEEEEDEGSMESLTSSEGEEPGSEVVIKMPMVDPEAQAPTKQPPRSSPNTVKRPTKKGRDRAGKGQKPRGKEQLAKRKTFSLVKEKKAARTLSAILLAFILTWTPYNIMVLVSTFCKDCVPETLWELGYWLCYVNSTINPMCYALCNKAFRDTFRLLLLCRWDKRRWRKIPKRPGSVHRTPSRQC
In short: (§1)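 Intracellular calcium was tracked by fluorescence (488/540 nm) over 60 sec after compound addition to dye-loaded CHO cells expressing the receptor. Inhibitory activity used a 15 min pre-incubation before carbachol at the subtype EC80.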

[2] = molecular target: T2, M4 muscarinic receptor (Homo sapiens, UniProt P08173); test: Functional mobilization of intracellular calcium (FLIPR, Fluo-3), M4-CHO cells; assay type: cell-based; conditions: for Emax: read-out: M4 Efficacy; for M4 Activity: M4-CHO cells, calcium mobilization
T2 construct: expressed in transfected cells; host or cells: CHO cells (M4-CHO, under puromycin, zeocin and blasticidin selection)
T2 sequence (P08173 1-479): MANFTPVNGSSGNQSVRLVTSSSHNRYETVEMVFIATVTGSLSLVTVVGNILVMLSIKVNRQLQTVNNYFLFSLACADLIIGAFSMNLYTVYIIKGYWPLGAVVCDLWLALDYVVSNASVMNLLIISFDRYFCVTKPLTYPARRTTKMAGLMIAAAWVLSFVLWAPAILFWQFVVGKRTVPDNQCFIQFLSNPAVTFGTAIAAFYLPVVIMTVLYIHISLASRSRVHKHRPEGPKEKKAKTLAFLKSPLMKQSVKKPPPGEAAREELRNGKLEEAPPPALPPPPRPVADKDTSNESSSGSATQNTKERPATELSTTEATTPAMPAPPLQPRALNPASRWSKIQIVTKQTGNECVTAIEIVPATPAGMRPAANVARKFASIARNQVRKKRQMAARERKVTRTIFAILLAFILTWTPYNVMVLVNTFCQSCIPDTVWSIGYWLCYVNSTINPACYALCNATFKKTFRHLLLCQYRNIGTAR
In short: as §1

[3] = compound nos. 1-454, 100% efficacy is the maximum response obtained with the Carbachol control

For `COC(=O)N1CC2(CCN(C3CC4CCC(C3)N4C(=O)O[C@H]3CCOC3)CC2)c2cc(F)ccc21` (stereo partly shown) [compound 96], the Emax [1, 3] was 65 to 85%, the “M1 Activity” value ([1]; compound nos. 1-454) was “++ (activity was measured to be between 0.7 μM and 3.0 μM)” and the Emax [2, 3] was < 55%. For the same molecule, the “M4 Activity” value ([2]; compound nos. 1-454) was “+ (activity was measured to be greater than or equal to 4.0 μM)”.

For `COC(=O)N1CC2(CCN(C3CC4CCC(C3)N4C(=O)OC(C)C)CC2)c2cc(F)ccc21` (stereo not shown) [compound 97], the Emax [1, 3] was 65 to 85%, the “M1 Activity” value ([1]; compound nos. 1-454) was “+++ (activity was measured to be less than or equal to 0.7 μM)” and the Emax [2, 3] was < 55%. For the same molecule, the “M4 Activity” value ([2]; compound nos. 1-454) was “+ (activity was measured to be greater than or equal to 4.0 μM)”.

With `CCCOC(=O)N1CCC(CN2CCC3(CC2)CN(C(C)=O)c2ccc(F)cc23)CC1` [compound 98] the Emax [1, 3] was 65 to 85%, the “M1 Activity” value ([1]; compound nos. 1-454) was “+++ (activity was measured to be less than or equal to 0.7 μM)” and the Emax [2, 3] was < 55%. The “M4 Activity” value ([2]; compound nos. 1-454) was “++ (activity was measured to be between 0.1 μM and 4.0 μM)”.

In the case of `CCOC(=O)N1C2CCC1CC(N1CCC3(CC1)COc1ccc(Cl)cc13)C2` (stereo not shown) [compound 99], the Emax [1, 3] is reported as < 65%, the “M1 Activity” value ([1]; compound nos. 1-454) is reported as “+++ (activity was measured to be less than or equal to 0.7 μM)” and the Emax [2, 3] is reported as < 55%. The “M4 Activity” value ([2]; compound nos. 1-454) was “+ (activity was measured to be greater than or equal to 4.0 μM)”.

With `COc1ccc(OC(=O)N2C3CCC2CC(N2CCC4(CC2)COc2ccc(F)cc24)C3)cc1` (stereo not shown) [compound 100] the “M1 Activity” value ([1]; compound nos. 1-454) was “+++ (activity was measured to be less than or equal to 0.7 μM)”, the Emax [1] was 65 to 85% and the “M4 Activity” value ([2]; compound nos. 1-454) was “++ (activity was measured to be between 0.1 μM and 4.0 μM)”. The Emax [2] was 55 to 70%.

In the case of `CC#CCOC(=O)N1CCC(N2CCC3(CC2)CN(C(C)=O)c2ccc(F)cc23)CC1` [compound 102], the Emax [1, 3] is reported as 65 to 85%, the “M1 Activity” value ([1]; compound nos. 1-454) is reported as “+++ (activity was measured to be less than or equal to 0.7 μM)” and the Emax [2, 3] is reported as 55 to 70%. The “M4 Activity” value ([2]; compound nos. 1-454) was “++ (activity was measured to be between 0.1 μM and 4.0 μM)”.

With `CCOC(=O)N1C2CCC1CC(N1CCC3(CC1)CN(S(C)(=O)=O)c1ccc(F)cc13)C2` (stereo not shown) [compound 103] the Emax [1, 3] was 65 to 85%, the “M1 Activity” value ([1]; compound nos. 1-454) was “+++ (activity was measured to be less than or equal to 0.7 μM)” and the Emax [2, 3] was < 55%. For the same molecule, the “M4 Activity” value ([2]; compound nos. 1-454) was “++ (activity was measured to be between 0.1 μM and 4.0 μM)”.

In the case of `O=C1CC2(CCN(C[C@H]3C[C@H]4C=C[C@H]3C4)CC2)c2ccccc21` [compound 104], the Emax [1, 3] is reported as 65 to 85%, the “M1 Activity” value ([1]; compound nos. 1-454) is reported as “+++ (activity was measured to be less than or equal to 0.7 μM)” and the Emax [2, 3] is reported as < 55%. For the same molecule, the “M4 Activity” value ([2]; compound nos. 1-454) was “+ (activity was measured to be greater than or equal to 4.0 μM)”.

With `CCOC(=O)N1CCC(N2CCC3(CC2)CN(C(C)=O)c2ccc(-c4ccncc4)cc23)CC1` [compound 105] the Emax [1, 3] was < 65%, the “M1 Activity” value ([1]; compound nos. 1-454) was “++ (activity was measured to be between 0.7 μM and 3.0 μM)” and the Emax [2, 3] was < 55%. For the same molecule, the “M4 Activity” value ([2]; compound nos. 1-454) was “+ (activity was measured to be greater than or equal to 4.0 μM)”.

For `COCCOC(=O)N1C2CCC1CC(N1CCC3(CC1)CN(C(=O)OC1CCC1)c1ccc(F)cc13)C2` (stereo not shown) [compound 106], the Emax [1, 3] was 65 to 85%, the “M1 Activity” value ([1]; compound nos. 1-454) was “+++ (activity was measured to be less than or equal to 0.7 μM)” and the Emax [2, 3] was < 55%. The “M4 Activity” value ([2]; compound nos. 1-454) was “++ (activity was measured to be between 0.1 μM and 4.0 μM)”.

For `CCOC(=O)N1CCC(CN2CCC3(CC2)COc2ccc(F)cc23)CC1` [compound 107], the Emax [1, 3] was 65 to 85%, the “M1 Activity” value ([1]; compound nos. 1-454) was “+++ (activity was measured to be less than or equal to 0.7 μM)” and the Emax [2, 3] was < 55%. For the same molecule, the “M4 Activity” value ([2]; compound nos. 1-454) was “+ (activity was measured to be greater than or equal to 4.0 μM)”.

`CC(C)OC(=O)N1C2CCC1CC(N1CCC3(CC1)CN(C(=O)N(C)C)c1ccc(F)cc13)C2` (stereo not shown) [compound 108] was tested, and the Emax [1, 3] was 65 to 85%, the “M1 Activity” value ([1]; compound nos. 1-454) was “+++ (activity was measured to be less than or equal to 0.7 μM)” and the Emax [2, 3] was < 55%. For the same molecule, the “M4 Activity” value ([2]; compound nos. 1-454) was “++ (activity was measured to be between 0.1 μM and 4.0 μM)”.

In the case of `CCOC(=O)N1C2CCC1CC(N1CCC3(CC1)CNc1ccc(C)cc13)C2` (stereo not shown) [compound 109], the Emax [1, 3] is reported as 65 to 85%, the “M1 Activity” value ([1]; compound nos. 1-454) is reported as “+++ (activity was measured to be less than or equal to 0.7 μM)” and the Emax [2, 3] is reported as < 55%. The “M4 Activity” value ([2]; compound nos. 1-454) was “++ (activity was measured to be between 0.1 μM and 4.0 μM)”.
